Assay: log P by HPLC on a reversed-phase column (C18), EEC Directive 79/831 Annex V.A8
Assay type: physicochemical
Protocol: The stated log P values were determined in accordance with EEC Directive 79/831 Annex V.A8 by HPLC (High Performance Liquid Chromatography) using a reversed-phase column (C18).

[1] = HCOOH, Table 4, compounds of formula I-A-Q4
[2] = HPLC, reversed-phase C18, mobile phase with formic acid

SMILES | log P (HCOOH) (HCOOH) | also measured
Cc1ccccc1-c1c(C(F)(F)F)nn(-c2ccc(C(=O)O)cc2)c1N [I-A-Q4-101] | – | log P (HCOOH) [1]: I-A-Q4-101: log P (HCOOH): 2.94
CSc1c(-c2cc(Cl)cc(C(F)(F)F)c2)c(C(F)(F)F)nn1-c1ccc(C(=O)NC(C)C(F)(F)F)cc1 (stereo not drawn) [I-A-Q2-068] | I-A-Q2-068: log P (HCOOH): 5.35 | –
Cc1cc(-n2nc(C(F)(F)F)c(-c3cc(Cl)cc(Cl)c3)c2N)ccc1C(=O)NCc1ncc(Cl)cc1C(F)(F)F [I-A-Q2-235] | I-A-Q2-235: log P (HCOOH): 4.95 | –
Cc1cc(-n2nc(C(F)(F)F)c(-c3cc(Cl)cc(Cl)c3)c2N)ccc1C(=O)NCCc1ccccc1 [I-A-Q2-050] | I-A-Q2-050: log P (HCOOH): 4.64 | –
Cc1cc(-n2nc(C(F)(F)Oc3ccc(Cl)c(Cl)c3)c(-c3cc(Cl)cc(C(F)(F)F)c3)c2N)ccc1C(=O)NCC(F)(F)C(F)F [I-A-Q2-300] | I-A-Q2-300: log P (HCOOH): 5.40 | –
CC(C)NC(=O)c1ccc(-n2nc(C(F)(F)F)c(-c3cc(Cl)cc(Cl)c3)c2N)nc1 [I-A-Q2-097] | I-A-Q2-097: log P (HCOOH): 4.64 | –
Nc1c(-c2cccc(F)c2)c(C(F)(F)F)nn1-c1ccc(C(=O)O)cc1 [I-A-Q4-097] | – | log P (HCOOH) [1]: I-A-Q4-097: log P (HCOOH): 2.88
Cc1cc(-n2nc(C(F)(F)F)c(-c3cc(Cl)cc(Cl)c3)c2N)ccc1C(=O)NC1CCC1 [I-A-Q2-239] | I-A-Q2-239: log P (HCOOH): 4.17 | –
Cc1cc(C)cc(-c2c(C(F)(F)F)nn(-c3ccc(C(=O)O)cc3)c2N)c1 [I-A-Q4-090] | – | log P (HCOOH) [1]: I-A-Q4-090: log P (HCOOH): 3.42
Cc1cc(-n2nc(C(F)(F)F)c(-c3ccccc3Br)c2N)ccc1C(=O)NCC(F)(F)C(F)F [I-A-Q2-423] | I-A-Q2-423: log P (HCOOH): 3.55 | –
Cc1cc(-n2nc(C(F)(F)F)c(-c3cc(Cl)cc(Cl)c3)c2N)ccc1C(=O)NCc1ncc(F)cc1F [I-A-Q2-278] | I-A-Q2-278: log P (HCOOH): 4.30 | –
N#Cc1cc(-n2nc(C(F)(F)F)c(-c3ccc(Br)cc3)c2N)ccc1-n1cncn1 [I-A-Q1-040] | – | log P (HCOOH) [2]: I-A-Q1-040: log P (HCOOH): 3.44
Nc1c(-c2cc(F)cc(Cl)c2)c(C(F)(F)F)nn1-c1ccc(C(=O)NC2CC2)cc1 [I-A-Q2-092] | I-A-Q2-092: log P (HCOOH): 3.27 | –
Nc1c(-c2ccc(Cl)cc2Cl)c(C(F)(F)F)nn1-c1ccc(Cl)cn1 [I-A-Q4-044] | – | log P (HCOOH) [1]: I-A-Q4-044: log P (HCOOH): 5.02
Cc1cc(-n2nc(C(F)(F)F)c(-c3cc(Cl)cc(Cl)c3)c2N)ccc1C(=O)N(C)Cc1ccccn1 [I-A-Q2-110] | I-A-Q2-110: log P (HCOOH): 2.69 | –
Cc1cc(-n2nc(C(F)(F)F)c(-c3ccc(F)c(F)c3)c2N)ccc1C(=O)NCC(F)(F)C(F)F [I-A-Q2-312] | I-A-Q2-312: log P (HCOOH): 3.42 | –
CC(NC(=O)c1ccc(-n2nc(C(F)(F)F)c(-c3cc(Cl)cc(Cl)c3)c2N)nc1)C(F)(F)F (stereo not drawn) [I-A-Q2-100] | I-A-Q2-100: log P (HCOOH): 4.96 | –
N#Cc1cc(-n2nc(C(F)F)c(-c3ccc(F)cc3F)c2N)ccc1-n1cncn1 [I-A-Q1-048] | – | log P (HCOOH) [2]: I-A-Q1-048: log P (HCOOH): 2.39
Cc1nccc(CNC(=O)c2ccc(-n3nc(C(F)(F)F)c(-c4cc(Cl)cc(Cl)c4)c3N)cc2C)n1 [I-A-Q2-258] | I-A-Q2-258: log P (HCOOH): 3.47 | –

SMILES | log P (HCOOH) (HCOOH) | also measured
Cc1cc(-n2nc(C)c(-c3ccc(Cl)c(Cl)c3)c2N)ccc1C(=O)NCc1ccccn1 [I-A-Q2-365] | I-A-Q2-365: log P (HCOOH): 2.27 | –
N#Cc1cc(-n2nc(C(F)(F)F)c(-c3ccc(Cl)c(F)c3)c2N)ccc1-n1cncn1 [I-A-Q1-032] | – | log P (HCOOH) [2]: I-A-Q1-032: log P (HCOOH): 3.28
CCc1nn(-c2ccc(Cl)cn2)c(N)c1-c1ccc(Cl)cc1 [I-A-Q4-026] | – | log P (HCOOH) [1]: I-A-Q4-026: log P (HCOOH): 5.02
COC(=O)c1ccc(-n2nc(C(F)(F)F)c(I)c2N)cc1C [XI-A-083] | XI-A-083: log P (HCOOH): 3.48 | –
CCC(NC(=O)c1ccc(-n2nc(C(F)(F)F)c(-c3cc(Cl)cc(Cl)c3)c2N)cc1)C(F)(F)F (stereo not drawn) [I-A-Q2-067] | I-A-Q2-067: log P (HCOOH): 4.65 | –
N#Cc1cc(-n2nc(C(F)(F)F)c(-c3ccc(F)c(F)c3)c2N)ccc1-n1cncn1 [I-A-Q1-044] | – | log P (HCOOH) [2]: I-A-Q1-044: log P (HCOOH): 3.10
Cc1cc(-n2nc(C(F)(F)F)c(-c3cc(Cl)cc(Cl)c3)c2N)ccc1C(=O)NCC(F)F [I-A-Q2-017] | I-A-Q2-017: log P (HCOOH): 4.04 | –
Cc1cc(-n2nc(C(F)(F)F)c(-c3cc(Cl)cc(Cl)c3)c2N)ccc1C(=O)NCC(F)(F)C(F)(F)C(F)(F)F [I-A-Q2-266] | I-A-Q2-266: log P (HCOOH): 4.89 | –
Nc1c(-c2cc(Cl)cc(Cl)c2)c(C(F)(F)F)nn1-c1ccc(C(=O)NCc2ncccn2)cn1 [I-A-Q2-108] | I-A-Q2-108: log P (HCOOH): 3.80 | –
CC(NC(=O)c1ccc(-n2nc(C(F)(F)F)c(-c3cccc(Cl)c3)c2N)cc1)C(F)(F)F (stereo not drawn) [I-A-Q2-083] | I-A-Q2-083: log P (HCOOH): 3.68 | –
Cc1cc(-n2nc(C(F)(F)F)c(-c3cc(Cl)cc(Cl)c3)c2N)ccc1C(=O)NCc1ncc[nH]1 [I-A-Q2-034] | I-A-Q2-034: log P (HCOOH): 1.94 | –
CCS(=O)(=O)c1ccc(-n2nc(C(F)(F)F)c(-c3cc(Cl)cc(Cl)c3)c2N)c(F)c1 [I-A-Q4-019] | – | log P (HCOOH) [1]: I-A-Q4-019: log P (HCOOH): 3.94
Cc1cc(-n2nc(C(F)(F)F)c(-c3cc(Cl)cc(Cl)c3)c2N)ccc1C(=O)NC(C)c1ccncc1 (stereo not drawn) [I-A-Q2-234] | I-A-Q2-234: log P (HCOOH): 2.38 | –
Cc1cc(-n2nc(C(F)(F)F)c(-c3cc(Cl)cc(Cl)c3)c2[S+](C)[O-])ccc1C(=O)NCC(F)(F)C(F)F (single isomer, unassigned) [I-A-Q2-284] | I-A-Q2-284: log P (HCOOH): 4.32 | –
Cc1cc(C)cc(-c2c(C(F)(F)F)nn(-c3ccc(-n4cncn4)c(C#N)c3)c2N)c1 [I-A-Q1-038] | – | log P (HCOOH) [2]: I-A-Q1-038: log P (HCOOH): 3.33
Cc1nn(-c2ccc(Cl)cn2)c(N)c1-c1ccc(Cl)cc1Cl [I-A-Q4-021] | – | log P (HCOOH) [1]: I-A-Q4-021: log P (HCOOH): 4.70
Cc1nn(-c2ccc(Cl)cn2)c(N)c1-c1cc(Cl)ccc1Cl [I-A-Q4-030] | – | log P (HCOOH) [1]: I-A-Q4-030 :log P (HCOOH): 4.57
Cc1cc(-n2nc(C(F)(F)F)c(-c3ccccc3Cl)c2N)ccc1C(=O)NCC1CC1 [I-A-Q2-413] | I-A-Q2-413: log P (HCOOH): 3.37 | –
Nc1c(Br)c(C(F)(F)F)nn1-c1ccc(C(=O)O)cc1 [XI-A-038] | XI-A-038: log P (HCOOH): 2.38 | –

SMILES | log P (HCOOH) (HCOOH) | also measured
Cc1cc(-n2nc(C)c(-c3ccccc3Cl)c2N)ccc1C(=O)NCC(F)(F)C(F)F [I-A-Q2-333] | I-A-Q2-333: log P (HCOOH): 2.59 | –
CC(NC(=O)c1ccc(-n2nc(C(F)(F)F)c(-c3cc(F)cc(Cl)c3)c2N)cc1)c1ccccn1 (stereo not drawn) [I-A-Q2-088] | I-A-Q2-088: log P (HCOOH): 2.99 | –
Cc1cc(-n2nc(C(F)(F)F)c(-c3cc(Cl)cc(Cl)c3)c2N)ccc1C(=O)NC(C)c1ccccc1 (stereo not drawn) [I-A-Q2-016] | I-A-Q2-016: log P (HCOOH): 4.79 | –
Cc1cc(-n2nc(C(F)(F)F)c(-c3ccc(Cl)cc3Cl)c2N)ccc1C(=O)NCC(F)(F)C(F)F [I-A-Q2-305] | I-A-Q2-305: log P (HCOOH): 3.75 | –
CC(NC(=O)c1ccc(-n2nc(C(F)(F)F)c(-c3cccc(F)c3)c2N)cc1)C(F)(F)F (stereo not drawn) [I-A-Q2-182] | I-A-Q2-182: log P (HCOOH): 3.33 | –
Cc1nn(-c2ccc(Cl)cn2)c(N)c1-c1ccc(F)cc1F [I-A-Q4-035] | – | log P (HCOOH) [1]: I-A-Q4-035: log P (HCOOH): 3.78
Cc1cc(-n2nc(C3CCCO3)c(-c3cc(Cl)cc(C(F)(F)F)c3)c2N)ccc1C(=O)NCC(F)(F)C(F)F (stereo not drawn) [I-A-Q2-290] | I-A-Q2-290: log P (HCOOH): 4.00 | –
Cc1nn(-c2ccc(-n3cncn3)c(C#N)c2)c(N)c1-c1ccc(F)cc1F [I-A-Q1-057] | – | log P (HCOOH) [2]: I-A-Q1-057: log P (HCOOH): 2.35
CC(NC(=O)c1ccc(-n2nc(C(F)(F)F)c(-c3cc(F)c(F)c(F)c3)c2N)cc1)c1ccccn1 (stereo not drawn) [I-A-Q2-196] | I-A-Q2-196: log P (HCOOH): 2.84 | –
Cc1cc(-n2nc(C(F)(F)F)c(I)c2N)ccc1C(=O)NCc1ccccn1 [XI-A-095] | XI-A-095: log P (HCOOH): 2.03 | –
CC(=O)Nc1[nH]nc(C(F)(F)F)c1-c1cc(Cl)cc(Cl)c1 [IX-203] | – | log P (HCOOH) (HCOOH, compounds of the formula (IX), Table 11): IX-203: log P (HCOOH): 2.98
COC(=O)c1cnc(-n2nc(C(F)(F)F)c(-c3cc(Cl)cc(Cl)c3)c2N)nc1C(F)(F)F [I-A-Q4-063] | – | log P (HCOOH) [1]: I-A-Q4-063: log P (HCOOH): 4.66
Cc1cc(-n2nc(C(F)(F)c3cccc(Br)c3)c(-c3cc(Cl)cc(C(F)(F)F)c3)c2N)ccc1C(=O)NCC(F)(F)C(F)F [I-A-Q2-285] | I-A-Q2-285: log P (HCOOH): 4.95 | –
CC(C)c1nn(-c2ccc(Cl)cn2)c(N)c1-c1ccc(Cl)cc1 [I-A-Q4-027] | – | log P (HCOOH) [1]: I-A-Q4-027: log P (HCOOH): 5.73
CC(NC(=O)c1ccc(-n2nc(C(F)(F)F)c(-c3ccc(Br)cc3)c2N)cc1)C(F)(F)F (stereo not drawn) [I-A-Q2-188] | I-A-Q2-188: log P (HCOOH): 3.78 | –
Cc1nn(-c2ccc(-n3cncn3)c(C#N)c2)c(N)c1-c1c(F)cccc1Cl [I-A-Q1-051] | – | log P (HCOOH) [2]: I-A-Q1-051: log P (HCOOH): 2.27
Cc1cc(-n2nc(C)c(-c3ccc(Cl)cc3)c2N)ccc1C(=O)NCc1ccccn1 [I-A-Q2-366] | I-A-Q2-366: log P (HCOOH): 1.91 | –
Cc1cc(-n2nc(C(F)(F)F)c(-c3cc(Cl)cc(Cl)c3)c2N)ccc1C(=O)NC1CCCCC1C(F)(F)F (stereo not drawn) [I-A-Q2-274] | I-A-Q2-274: log P (HCOOH): 4.95 | –
Cc1cc(-n2nc(C(F)(F)F)c(-c3ccc(F)c(Cl)c3)c2N)ccc1C(=O)NCc1ccccn1 [I-A-Q2-352] | I-A-Q2-352: log P (HCOOH): 2.76 | –

— patent US20110190365A1, “Insecticidal 4-phenyl-1H-pyrazoles” (Bayer Crop Science AG, priority 2008, published 2011)
